Where no end group is shown, it is not given here.
What was measured:
HeLa/MLL cells = experiment: Cell survival of HeLa/MLL cells by FSC/SSC gating in FACS; format: cell-based, human; conditions: HeLa/MLL nucleofected with peptide; 0.5 μM doxorubicin 4 h; 72 h
Description: HeLa/MLL cells (0.5×10^6) were nucleofected with the peptide on the first day and split into three 6-wells for further cultivation. On the second day, the cells were treated with 0.5 μM doxorubicin for 4 h. […]. Afterwards, the medium was removed, the cells were washed with 2 ml PBS and 2 ml new medium was added. For FACS measurements, the cells were washed with PBS after 72 h of culture, 200 μl of trypsin (PAN Biotech, Aidenbach, Germany) was added and the reaction was stopped with medium. Genomic DNA was isolated without recultivation after doxorubicin treatment.
Use of the fluorescence-based assay system for recombination measurements with K562/MLL or HeLa/MLL cells with chromosomally integrated plasmid pHR-EGFP/3′EGFP-MLLbcr.fwd is described in detail in Ireno et al. 2014 and Gole et al. 2015, respectively. […] This suspension was transferred to FACS tubes and the fluorescence of the cells was detected on the FACSCalibur™ (BD Biosciences, San Jose, California, USA). […] Subsequently, the selected cell population was separated in another dot-plot diagram with FL-1/FL-2 alignment depending on their fluorescence properties (FL-1 for green fluorescence, FL-2 for orange intrinsic fluorescence). Depending on the approach, 150,000 to 1,000,000 living cells were analyzed. […]

K562/MLL cells = experiment: Cell survival of K562/MLL cells by FSC/SSC gating in FACS; format: cell-based; conditions: for effect of peptide on cell survival after doxorubicin treatment: K562/MLL nucleofected with 0-600 μg peptide per 1×10^6 cells; for effect of peptide on cell survival after doxorubicin treatment / cell survival: 2 μM doxorubicin 4 h; for cell survival: 72 h; for toxic effects toward leukemia cells (summary statement): leukemia cells after doxorubicin treatment; for toxicity of the peptide in K562/MLL cells: K562/MLL nucleofected with different peptide concentrations, 2 μM doxorubicin
Description: (§1) K562/MLL cells were divided 1:2 before the start of the experiment and transfected with the plasmid (2×10^6 cells) or nucleofected with the peptide (1×10^6 cells) on the second day. After 24 h, the cells were then treated with 2 μM doxorubicin (Uniklinik Ulm, Germany) and after 4 h incubation, the cells were centrifuged, the supernatant discarded and the cells taken up in 2 ml PBS (Gibco/Thermo Fisher Scientific). After centrifugation again, the supernatant was discarded and the cells were seeded in 2 ml of new culture medium for 72 h.
Use of the fluorescence-based assay system for recombination measurements with K562/MLL or HeLa/MLL cells with chromosomally integrated plasmid pHR-EGFP/3′EGFP-MLLbcr.fwd is described in detail in Ireno et al. 2014 and Gole et al. 2015, respectively. For the acquisition of recombination data, cells were harvested, pelleted, resuspended in PBS and then re-sedimented. The cell pellets were stored on ice and resuspended in PBS (mixed with 0.2% EDTA) only shortly before FACS measurement. This suspension was transferred to FACS tubes and the fluorescence of the cells was detected on the FACSCalibur™ (BD Biosciences, San Jose, California, USA). To achieve a separation between living and dead cells, the cell clouds were plotted linearly against FSC/SSC orientation in a dot plot diagram. Depending on cell size and granularity, the living cells were distinguished from cell debris and dead cells by placing a marker (gate) around the “living cell cloud”. Subsequently, the selected cell population was separated in another dot-plot diagram with FL-1/FL-2 alignment depending on their fluorescence properties (FL-1 for green fluorescence, FL-2 for orange intrinsic fluorescence). Depending on the approach, 150,000 to 1,000,000 living cells were analyzed. Recombination frequencies were determined from the proportion of green fluorescent cells in the living cell population.
K562/MLL cells were electroporated with these expression plasmids for the different Ku80 variants or the empty vector (control) and 24 h later treated for 4 h with the chemotherapeutic agent doxorubicin (2 μM). After washing the cells, they were cultured in fresh medium for a further 72 h. The subsequent detection of green fluorescent cells for analysis of recombination frequencies was achieved by FACS using a diagonal gate in a FL-1/FL-2 dot plot diagram. Living cells were pre-selected by FSC/SSC gating to distinguish between EGFP-positive and -negative within the living cells.
The peptides were introduced into K562/MLL cells by Nucleofector™ technology as described above. The cells were nucleofected with 0-600 μg peptide per 1×10^6 cells and treated with 2 μM doxorubicin for 4 h after 24 h. After washing, the cells were cultured for another 72 h in fresh medium. […] Subsequently, recombination frequencies were determined.
Cell survival was determined in parallel with the recombination measurements.

[1] = system: MLLbcr rearrangements in K562/MLL cells; experiment: Fluorescence-based (EGFP reconstitution) recombination assay for MLLbcr rearrangements in K562/MLL cells after doxorubicin; format: cell-based, human; conditions: expression plasmid electroporated into K562/MLL; 2 μM doxorubicin 4 h after 24 h; 72 h culture; vs empty vector control set to 100%
Description: as §1
Use of the fluorescence-based assay system for recombination measurements with K562/MLL or HeLa/MLL cells with chromosomally integrated plasmid pHR-EGFP/3′EGFP-MLLbcr.fwd is described in detail in Ireno et al. 2014 and Gole et al. 2015, respectively. For the acquisition of recombination data, cells were harvested, pelleted, resuspended in PBS and then re-sedimented. The cell pellets were stored on ice and resuspended in PBS (mixed with 0.2% EDTA) only shortly before FACS measurement. This suspension was transferred to FACS tubes and the fluorescence of the cells was detected on the FACSCalibur™ (BD Biosciences, San Jose, California, USA). To achieve a separation between living and dead cells, the cell clouds were plotted linearly against FSC/SSC orientation in a dot plot diagram.

[2] = K562/MLL nucleofected with 50 μg peptide
[3] = K562/MLL nucleofected with 100 μg peptide

**Q.** Which “effect on cell survival” value (HeLa/MLL cells) does the source give for `CC[C@H](C)[C@H](NC(=O)CNC(=O)[C@H](CC(=O)O)NC(=O)[C@H](CCC(N)=O)NC(=O)[C@@H](NC(=O)[C@@H](NC(=O)[C@@H](NC(=O)[C@@H](N)CCC(=O)O)[C@@H](C)CC)C(C)C)C(C)C)C(=O)N[C@H](C(=O)N[C@@H](CC(C)C)C(=O)N[C@H](C(=O)N[C@H](C(=O)N[C@@H](CCCCN)C(=O)N[C@@H](CCC(=O)O)C(=O)N[C@@H](CCC(=O)O)C(=O)N[C@@H](C)C(=O)N[C@@H](CO)C(=O)NCC(=O)N[C@@H](CO)C(=O)N[C@@H](CO)C(=O)N[C@H](C(=O)N[C@H](C(=O)N[C@@H](C)C(=O)N[C@@H](CCC(=O)O)C(=O)N[C@@H](CCC(=O)O)C(=O)N[C@@H](C)C(=O)N[C@@H](CCCCN)C(=O)N[C@@H](CCCCN)C(=O)O)[C@@H](C)O)C(C)C)[C@@H](C)O)[C@@H](C)CC)[C@@H](C)O` [Ku3] here?
**A.** The value was “without affecting cell survival”.

**Q.** What about the “effect of peptide on cell survival after doxorubicin treatment” value (K562/MLL cells) of the same molecule?
**A.** The value was “not affected”.

**Q.** What about the cell survival (K562/MLL cells; [2]) of the same molecule?
**A.** Its cell survival is “not affected”.

**Q.** What about the cell survival (K562/MLL cells; [3]) of the same molecule?
**A.** Its cell survival is “not affected”.

**Q.** And the “toxic effects toward leukemia cells (summary statement)” value (K562/MLL cells)?
**A.** Its value is “without exhibiting toxic effects”.

**Q.** With `COc1cccc2c1C(=O)c1c(O)c3c(c(O)c1C2=O)C[C@@](O)(C(=O)CO)C[C@@H]3O[C@H]1C[C@H](N)[C@H](O)[C@H](C)O1` [doxorubicin, reference compound] as the molecule, how does the “cell survival after doxorubicin treatment” value (K562/MLL cells; human, 4 h, 2 μM) read?
**A.** The value was 70-80%.

**Q.** Which “toxicity of the peptide in K562/MLL cells” value (K562/MLL cells) does the source give for ASFEEASNQLINHIEQFLDTNETPYFMKSI [Ku4] here?
**A.** The value was “caused toxicities”.

**Q.** And the “reduction of cell survival after doxorubicin treatment to” value (K562/MLL cells; K562/MLL nucleofected with ≥300 μg peptide)?
**A.** Its value is “≥ half”.

**Q.** Which cell survival (K562/MLL cells; [2]) does the source give for “EIVVQDGITLITKAEASGSSVTAEEAKK [Ku3 mut1, reference compound]” here?
**A.** The cell survival was “not affected”.

**Q.** Which “toxic effects toward leukemia cells (summary statement)” value (K562/MLL cells) does the source give for ITKEEASGSSVTAEEAKKFLA [SEQ ID No. 4] here?
**A.** Its value is “without exhibiting toxic effects”.

**Q.** For ITKEEASGSSVTAEEAKKFLAG [Ku1], which “effect of peptide on cell survival after doxorubicin treatment” value (K562/MLL cells) is on record?
**A.** Its value is “did not affect cell survival”.

**Q.** For RVLVKQKKASFEEASNQLINHIEQFL [Ku2], which “reduction of cell survival after doxorubicin treatment to” value (K562/MLL cells; K562/MLL nucleofected with 200-400 μg peptide) is on record?
**A.** Its value is “≥ half”.

**Q.** What about the “toxicity of the peptide in K562/MLL cells” value (K562/MLL cells) of the same molecule?
**A.** The value was “caused toxicities”.

**Q.** How did the cell survival (K562/MLL cells; [3]) turn out when “VDSTTIEKSIAEVAEEQESILKKVAGGT [scrambled peptide, reference compound]” was run?
**A.** Its cell survival is “not affected”.

B1: Ku80ct: Ku80 amino acids 592-709 fused behind the amino acids PTAKKLK of the nuclear localization signal, expressed from plasmid (protein, UniProt P13010 592-709, looked up, fragment)
chain: VNPAENFRVLVKQKKASFEEASNQLINHIEQFLDTNETPYFMKSIDCIRAFREEAIKFSEEQRFNNFLKALQEKVEIKQLNHFWEIVVQDGITLITKEEASGSSVTAEEAKKFLAPKD
modifications: N-terminal NLS peptide PTAKKLK
notes: Ku80 amino acids 592-709 fused behind the amino acids PTAKKLK of the nuclear localization signal, expressed from plasmid
**Q.** B1 was tested. Which “MLLbcr rearrangements (recombination frequency) lowered by” value [1] did it give?
**A.** Its value is 45%.

Source: patent US20250171753A1, “PEPTIDE AND USE THEREOF IN THE PREVENTION OF THERAPY-RELATED LEUKEMIA” (UNIVERSITÄT ULM, priority 2022, published 2025)
